Source: US20010049372A1, “Antiviral nucleoside analogues” (BioChem Pharma Inc., priority 1998, published 2001)
Where two headings read alike, the source gives them in different places. Blank lines part the entries; values can stand above or below the molecule they belong to.

Assays:
[1] = Cellular toxicity by WST-1 staining; type: cell-based; conditions: human, CBMCs, Table 4, day 7, read-out: CC50 (μM) WST-1 CBMC
Protocol: (§1) The cellular toxicity of the compounds were assessed on various cells using [^3H]-thymidine uptake. Various cells, including Molt-4, HT1080, DU-145, HepG-2 and HSF, were plated at a concentration of 1-2×10^3 cells per well (96 well plates). After a 24 hr incubation period, 10-fold serial diluted compounds (b 10^−4 M to 10^−10 M) were added to the culture medium and the cells were further incubated for 72 hrs. [^3H]-thymidine was added during the final 18 hr incubation period. After incubation with the [^3H]-thymidine, the cells were washed once with PBS, treated with trypsin if the cells were adherent, and then resuspended in water (hypotonic lysing of cells). The cellular extract was applied directly to a Tomtec Harvester 96. Using this instrument the extracted DNA is adsorbed onto filters, washed and the incorporated [^3H]-thymidine is then counted. The 50% cytotoxic concentration (CC50) was determined by comparing the radioactive counts per minute of the samples in the presence of the compounds against the control. The cellular toxicity of the compounds was also tested by WST-1 staining through assessing proliferation of MT-2, H9, Jurkat, U937, and CBMCs. The established cell lines were cultured in RPMI medium in 96-well plates at a density of 5×10^4 cells/well while CBMCs were plated at a concentration of 0.5×10^6/well. A 10-fold serial diluted (10^−4-10^−7 M) compound was added at day zero. At day 4, the cells were passaged by changing half medium containing appropriately diluted compound. The cell activities were assessed at day 7 using the WST-1 reagent (Boehringer Mannheim) following the protocol provided by the supplier.
(§2) In the WST-1 staining experiments, cell lines were cultured in RPMI medium in 96-well plates at a density of 5×10^4 cells/well. CBMCs were plated at a concentration of 0.5×10^6/well. Compounds (10^−4-10^−7 M) were added at day zero. Cell viability was assessed on day 7 using the WST-1 reagent (Boehringer Mannheim) following the protocol provided by the supplier.

PBMCs = assay: Cellular toxicity by [3H]-thymidine uptake; type: cell-based, human; conditions: Table 4, 72 hrs
Protocol: (§3) Cellular toxicity was assessed by [^3H]thymidine uptake (de Muys et al. 1999) and WST-1 staining. In the [^3H]thymidine uptake experiments, Molt-4, HT1080, DU-145, HepG2 and HSF, were plated at a concentration of 1-2×10^3 cells per well (96 well plates). PHA-stimulated PBMCs were cultured at a concentration of 4×10^4 cells per well. Following a 24 hr pre-incubation period, test compounds (10^−4 M to 10^−10 M) were added and the cells were incubated for an additional 72 hrs. [^3H]thymidine was added during the final 18 hr incubation period. The cells were then washed once with PBS, treated with trypsin if the cells were adherent, and resuspended in water (hypotonic lysing of cells). The cellular extract was applied directly to a Tomtec Harvester 96. The 50% cytotoxic concentration (CC50) was determined by comparing the radioactive counts per minute obtained from drug-tested samples to those obtained from the control (untreated) cells.

[2] = Cellular toxicity by [3H]-thymidine uptake; type: cell-based; conditions: human
Protocol: as §1, §3

[3] = Body weight gaining effect in mice; type: in vivo; conditions: intraperitoneally, mice (CDI, adult, male), 50 mg/kg/day for 5 days
[4] = Preliminary pharmacokinetic study in male adult rats; type: in vivo; conditions: rat
Protocol: The bioavailability of the compounds were evaluated in male adult rats dosed intravenously through the tail vein (5 mg/kg) and orally (20 mg/kg). The plasma samples were collected at 2, 5, 15, 30, 60, 90, 120 and 240 minutes after intravenous dosing and 5, 15, 30, 60, 90, 120, 240 and 360 minutes after oral dosing.
Blood samples (1 ml) were collected from the rat tails into a vacutainer containing EDTA (3 ml) for both iv and po administrations. Plasma samples were prepared by centrifugation at 2000 ×g for 15 minutes at 4° C.
(§4) Plasma samples (diluted to 1 ml with water) were loaded onto the Abselut Nexus sorbent (# 1210-3100 ) and drawn through under low vacuum (approximately 5′′ Hg). One milliliter of deionized water was added to the sorbent and drawn through under vacuum. The extraction column was dried for 1 minute using a high vacuum (>10′′ Hg). One milliliter of methanol was added to the Abselut Nexus column and the eluent was collected at 1-2 ml/min. The eluent was evaporated to dryness using a Speed Vac, and the samples were reconstituted in 120 μl H2O; 100 μl was used for injection.

CBMCs = assay: Cellular toxicity by WST-1 staining; type: cell-based; conditions: Table 4, day 7, read-out: CC50 (μM) WST-1 CBMC
Protocol: as §1, §2

DU-145 = assay: Cellular toxicity by [3H]-thymidine uptake; type: cell-based; conditions: Table 4, 72 hrs
Protocol: as §1, §3

HSF = assay: Cellular toxicity by [3H]-thymidine uptake; type: cell-based; conditions: Table 4, 72 hrs
Protocol: as §1, §3

HT1080 = assay: Cellular toxicity by [3H]-thymidine uptake; type: cell-based; conditions: Table 4, 72 hrs
Protocol: as §1, §3

HepG-2 = assay: Cellular toxicity by [3H]-thymidine uptake; type: cell-based; conditions: Table 4, 72 hrs
Protocol: as §1, §3

Molt-4 = assay: Cellular toxicity by [3H]-thymidine uptake; type: cell-based; conditions: Table 4, 72 hrs
Protocol: as §1, §3

[5] = Pharmacokinetic study in male and female rats (single dose iv or po); type: in vivo, rat; conditions: parameters of DAPD & DXG after administration of DAPD
Protocol: Compound A(−), DAPD, and DXG were administrated as a single dose, either intravenously through the jugular vein at 10 mg/kg or orally at 20, 125, 500, 1000 or 2000 mg/kg. All rats were fasted for 12 hours prior to po dosing treatment. The vehicle used for both iv and po administrations was 0.1% carboxymethylcellulose and 0.1% Tween 80 in distilled water, acidified to pH 3.15 with 1N HCl. Blood samples were taken from rats at the times shown in the schedule below for all oral dosing. From a total of 10 rats for each administration, seven time points were taken for the intravenous through the jugular vein dosing (2, 5, 15, 30, 60, 120 and 240 min) and for the oral dosing (5-360 min) at 20 mg/kg, whereas two additional time points at 480 and 1440 min were taken for the oral doses of 125-2000 mg/kg. As a result, each time point was in quadruplicate, except for the 1440 minute time point when blood samples were taken through the jugular vein from all the rats prior to being euthanized.
Blood samples (1 ml) were collected from the rat tails into a vacutainer containing EDTA (3 ml) for both iv and po administrations. Plasma samples were prepared by centrifugation at 2000×g for 15 minutes at 4° C.
as §4, with “(#1210-3100)” for “(# 1210-3100 )”

HIV-1IIIB = assay: Anti-HIV-1 antiviral assay with HIV-1IIIB in various cell types (RT activity); type: cell-based; conditions: HIV-1IIIB, MT-2 cells, determined by RT activity; read-out: EC50 (μM) ± S.D. in MT-2 cells
Protocol: ANTIVIRAL ASSAYS. The anti-HIV-1 activity of the compound A (−) were assessed by employing HIV-1IIIB in a variety of cell types as previously described (Gu et al., 1992, 1994, 1999; Rando et al., 1995; Salomon et al., 1994). Briefly, cells were incubated with virus at a multiplicity of infection (MOI) of 0.005 for T cell assays and an MOI of 0.5 for monocytic cell assays for 3 hrs. Unbound virus was then removed by washing the cells, followed by seeding the cells into a 96-well plate. The infected cells were cultured in the presence of a serial concentrations of the test compound for 5-7 days. The anti-HIV-1 efficacy was determined by testing for HIV-1 RT activity or p24 level in the cell culture supernatants. All assays were performed in duplicate. Zidovudine and/or lamivudine were used as controls in each experiment.
Activity of the compound A (−) against HIV-1 in various cells. Anti-HIV-1 activity of the compound A (−) were tested in different types of cells, including human peripheral […] cells (PBMCs), T-cell (MT-2 and MT-4) and monocytic cell (U937) lines. The compound A (−) had submicromolar EC50s against HIV-1IIIB in different types of cells tested (Table 2).

half-life ([4]; male, plasma, iv 5 mg/kg): 18.6 min
AUC ([4]; male, plasma, iv 5 mg/kg, read-out: AUC): 5600 ng·h/mL
Cmax ([4]; male, plasma, iv 5 mg/kg, read-out: Cmax): 13300 ng/mL
half-life ([4]; male, plasma, oral 20 mg/kg): 72 min
AUC ([4]; male, plasma, oral 20 mg/kg, read-out: AUC): 3080 ng·h/mL
Cmax ([4]; male, plasma, oral 20 mg/kg, read-out: Cmax): 1120 ng/mL
Oral BA (%) ([4]; oral 20 mg/kg): 13.75%
SMILES: Nc1nc(NC2CCC2)c2ncn([C@H]3CO[C@@H](CO)O3)c2n1 [Cmpd B (−), (−)-(2R,4R)-2-hydroxymethyl-4-(2′-amino-6′-cyclobutylamino-purine-9′-yl)-1,3-dioxolane]
CC50 at 7 days [1]: > 100 µM
CC50 (μM) [^3H-]TTP incorporation in: PBMC (PBMCs): 80/90
CC50 at 72 h ([2]; DU-145 cells, Table 4, read-out: CC50 (μM) [^3H-]TTP incorporation in: U-145): 200 µM
CC50 at 72 h ([2]; HT1080 cells, Table 4, read-out: CC50 (μM) [^3H-]TTP incorporation in: HT1080): > 250 µM
CC50 at 72 h ([2]; HepG2 cells, Table 4, read-out: CC50 (μM) [^3H-]TTP incorporation in: HepG2): > 250 µM
CC50 at 72 h ([2]; Molt-4 cells, Table 4, read-out: CC50 (μM) [^3H-]TTP incorporation in: Molt-4): > 250 µM
Mice (50 mg/kg/d): body weight gaining effect [3]: No

AUC ([4]; oral 20 mg/kg): 1890 ng·h/mL
Cmax ([4]; oral 20 mg/kg): 1040 ng/mL
Oral BA (%) ([4]; oral 20 mg/kg): 7.42%
T1/2 ([4]; oral 20 mg/kg): 46.2 min
AUC ([5]; female rat, iv 10 mg/kg): 357.9 µg·min/mL
Cmax ([5]; female rat, iv 10 mg/kg): 22100 ng/mL
T1/2 ([5]; female rat, iv 10 mg/kg): 31.5 min
AUC ([5]; female rat, po 20 mg/kg): 307.2 µg·min/mL
Bioavailability (%) ([5]; female rat, po 20 mg/kg): 43%
Cmax ([5]; female rat, po 20 mg/kg): 2500 ng/mL
T1/2 ([5]; female rat, po 20 mg/kg): 31.3 min
Tmax ([5]; female rat, po 20 mg/kg): 45 min
AUC ([5]; male rat, iv 10 mg/kg): 271.2 µg·min/mL
Cmax ([5]; male rat, iv 10 mg/kg): 16200 ng/mL
T1/2 ([5]; male rat, iv 10 mg/kg): 36.2 min
AUC ([5]; male rat, po 20 mg/kg): 196.5 µg·min/mL
Bioavailability (%) ([5]; male rat, po 20 mg/kg): 36%
Cmax ([5]; male rat, po 20 mg/kg): 1960 ng/mL
T1/2 ([5]; male rat, po 20 mg/kg): 34 min
Tmax ([5]; male rat, po 20 mg/kg): 35 min
SMILES: Nc1nc(N)c2ncn([C@H]3CO[C@@H](CO)O3)c2n1 [DAPD, (−)-β-D -2,6-diaminopurine dioxolane]
CC50 (CBMCs): > 100 µM
CC50 (PBMCs; read-out: CC50 (μM) [^3H-]TTP incorporation in: PBMC): > 500 µM
CC50 (DU-145; read-out: CC50 (μM) [^3H-]TTP incorporation in: U-145): > 500 µM
CC50 (μM) [^3H-]TTP incorporation in: HSF (HSF): 500/350
CC50 (HT1080; read-out: CC50 (μM) [^3H-]TTP incorporation in: HT1080): > 500 µM
CC50 (HepG-2; read-out: CC50 (μM) [^3H-]TTP incorporation in: HepG2): ≥ 500 µM
CC50 (Molt-4; read-out: CC50 (μM) [^3H-]TTP incorporation in: Molt-4): > 500 µM

EC50 (HIV-1IIIB): 0.065 ± 0.039 µM
AUC ([4]; iv 5 mg/kg): 5150 ng·h/mL
Cmax ([4]; iv 5 mg/kg): 29020 ng/mL
T1/2 ([4]; iv 5 mg/kg): 37.2 min
AUC ([4]; oral 20 mg/kg): 910 ng·h/mL
Cmax ([4]; oral 20 mg/kg): 270 ng/mL
Oral BA (%) ([4]; oral 20 mg/kg): 4.43%
T1/2 ([4]; oral 20 mg/kg): 147 min
SMILES: Nc1nc2c(ncn2[C@H]2CO[C@@H](CO)O2)c(=O)[nH]1 [DXG, (−)-β-D -1,3-dioxolane guanine]
CC50 (CBMCs): > 100 µM
CC50 (μM) [^3H-]TTP incorporation in: PBMC (PBMCs): >500/250
CC50 (μM) [^3H-]TTP incorporation in: U-145 (DU-145): >500/250
CC50 (HSF; read-out: CC50 (μM) [^3H-]TTP incorporation in: HSF): ≥ 500 µM
CC50 (μM) [^3H-]TTP incorporation in: HT1080 (HT1080): >500/250
CC50 (μM) [^3H-]TTP incorporation in: HepG2 (HepG-2): >500/250
CC50 (μM) [^3H-]TTP incorporation in: Molt-4 (Molt-4): >500/250
